Laboratory results taken from patent US11033535B2, “Oxadiazoles and thiadiazoles as TGF-β inhibitors” (Southern Research Institute, priority 2017, dated 2021).
Where two headings read alike, the source gives them in different places.

Test: Pharmacokinetic evaluation following a single oral and intravenous administration
Type: in vivo, CD1 mouse
Conditions: for concentration at 1 h / concentration at 2 h / concentration at 4 h / concentration at 8 h / concentration at 24 h / AUC(0-inf) / AUC(0-t) / Cmax / MRT inf / half-life: CD1, mouse, plasma, po, 5 mg/kg; for concentration at 1 h / concentration at 2 h / concentration at 4 h / concentration at 8 h / concentration at 24 h: Table 5, PO Dose: 5 mg/kg
Method: A NMP stock solution was prepared by adding 1.136 mL of NMP to 5.68 mg of compound no. 42140 with vortexing and sonification, to obtain a solution with a concentration at 5 mg/mL of 42140:01. Next, to prepare an intravenous formulation, 0.100 mL of the 5 mg/mL stock solution was placed in a new vial. 0.100 mL of NMP and 0.400 mL of PEG400 were added with vortexing and sonification, followed by addition of 0.400 mL of saline with vortexing and sonification. […] 42140:01. Alternatively, to prepare an oral formulation, 0.200 mL of the 5 mg/mL stock solution was placed in a new vial. 0.400 mL of PEG400 was added with vortexing and sonification, followed by addition of 0.400 mL of saline with vortexing and sonifiction. […] 42140:01.
(§1) Briefly, the desired serial concentrations of working solutions were achieved by diluting a stock solution of the compound with 100% acetonitrile. 3 μL of working solutions (5, 10, 20, 50, 100, 500, 1000, 5000, 10000 ng/mL) were added to 30 μL of the blank CD1 mouse plasma to achieve calibration standards of 0.5-1000 ng/mL (0.5, 1, 2, 5, 10, 50, 100, 500, 1000 ng/mL) in a total volume of 33 μL. Five quality control samples at 1 ng/mL, 2 ng/mL, 5 ng/mL, 50 ng/mL and 800 ng/mL for plasma were prepared independently of those used for the calibration curves. These QC samples were prepared on the day of analysis in the same way as calibration standards.
Next, 33 μL standards, 33 μL QC samples, and 33 μL unknown samples (30 μL plasma with 3 μL blank solution) were added to 200 μL of acetonitrile containing IS mixture for precipitating protein, respectively. Then the samples were vortexed for 30 s. After centrifugation at 4 degree Celsius, 4000 rpm for 15 min, 3 μL of supernatant was injected into the LC/MS/MS system for quantitative analysis.
HPLC analysis was performed using 100% water with 0.1% formic acid (Solution A) and 100% acetonitrile with 0.1% formic acid (Solution B) with a flow rate of 0.6 mL/min.
A NMP stock solution was prepared by adding 2.092 mL of NMP to 10.46 mg of […] with vortexing and sonification, to obtain a solution with a concentration at 5 mg/mL of […]. Next, to prepare an intravenous formulation, 0.100 mL of the 5 mg/mL stock solution was placed in a new vial. 0.100 mL of NMP and 0.400 mL of PEG400 were added with vortexing and sonification, followed by addition of 0.400 mL of saline with vortexing and sonification. […] 42320:01. Alternatively, to prepare an oral formulation, 0.200 mL of the 5 mg/mL stock solution was placed in a new vial. 0.400 mL of PEG400 was added with vortexing and sonification, followed by addition of 0.400 mL of saline with vortexing and sonifiction. […] 42320:01.
as §1, with “50 ng/mL,” for “50 ng/mL”

[1] = Mouse 5, read-out: Concentration
[2] = Mouse 6, read-out: Concentration
[3] = mean, read-out: Concentration, Mean
[4] = Mouse 4, read-out: Concentration
[5] = Table 4, IV Dose: 1 mg/kg, Mouse 1
[6] = Table 4, IV Dose: 1 mg/kg, Mouse 2
[7] = Table 4, IV Dose: 1 mg/kg, Mouse 3
[8] = Table 4, IV Dose: 1 mg/kg, mean
[9] = Table 6, PO Dose: 5 mg/kg, Mouse 4
[10] = Table 6, PO Dose: 5 mg/kg, Mouse 5
[11] = Table 6, PO Dose: 5 mg/kg, Mouse 6
[12] = Table 6, PO Dose: 5 mg/kg, mean

concentration at 1 h [1]: 129 ng/mL
concentration at 1 h [2]: 136 ng/mL
concentration at 1 h [3]: 127 ng/mL
concentration at 2 h [4]: 139 ng/mL
concentration at 2 h [1]: 140 ng/mL
concentration at 2 h [2]: 175 ng/mL
concentration at 2 h [3]: 151 ng/mL
concentration at 4 h [4]: 103 ng/mL
concentration at 4 h [1]: 112 ng/mL
concentration at 4 h [2]: 123 ng/mL
concentration at 4 h [3]: 113 ng/mL
concentration at 8 h [4]: 72.7 ng/mL
concentration at 8 h [1]: 91.4 ng/mL
concentration at 8 h [2]: 93.5 ng/mL
concentration at 8 h [3]: 85.9 ng/mL
concentration at 24 h [4]: 29.8 ng/mL
concentration at 24 h [1]: 22.7 ng/mL
concentration at 24 h [2]: 29.6 ng/mL
concentration at 24 h [3]: 27.4 ng/mL
AUC(0-inf) (Table 6, PO Dose: 5 mg/kg, Mouse 4, read-out: AUCInf): 2110 ng·h/mL
AUC(0-t) (Table 6, PO Dose: 5 mg/kg, Mouse 4, read-out: AUClast): 1620 ng·h/mL
Cmax (Table 6, PO Dose: 5 mg/kg, Mouse 4, read-out: Cmax): 139 ng/mL
MRT inf (Table 6, PO Dose: 5 mg/kg, Mouse 4, read-out: MRTInf—obs): 15.8 h
half-life (Table 6, PO Dose: 5 mg/kg, Mouse 4, read-out: T1/2 (converted)): 11.5 h
AUC(0-inf) (Table 6, PO Dose: 5 mg/kg, Mouse 5, read-out: AUCInf): 2060 ng·h/mL
AUC(0-t) (Table 6, PO Dose: 5 mg/kg, Mouse 5, read-out: AUClast): 1790 ng·h/mL
Cmax (Table 6, PO Dose: 5 mg/kg, Mouse 5, read-out: Cmax): 140 ng/mL
MRT inf (Table 6, PO Dose: 5 mg/kg, Mouse 5, read-out: MRTInf—obs): 11.4 h
half-life (Table 6, PO Dose: 5 mg/kg, Mouse 5, read-out: T1/2 (converted)): 8.47 h
AUC(0-inf) (Table 6, PO Dose: 5 mg/kg, Mouse 6, read-out: AUCInf): 2380 ng·h/mL
AUC(0-t) (Table 6, PO Dose: 5 mg/kg, Mouse 6, read-out: AUClast): 1960 ng·h/mL
Cmax (Table 6, PO Dose: 5 mg/kg, Mouse 6, read-out: Cmax): 175 ng/mL
MRT inf (Table 6, PO Dose: 5 mg/kg, Mouse 6, read-out: MRTInf—obs): 13.1 h
half-life (Table 6, PO Dose: 5 mg/kg, Mouse 6, read-out: T1/2 (converted)): 9.71 h
AUC(0-inf) (Table 6, PO Dose: 5 mg/kg, mean, read-out: AUCInf, Mean): 2190 ng·h/mL
AUC(0-t) (Table 6, PO Dose: 5 mg/kg, mean, read-out: AUClast, Mean): 1790 ng·h/mL
Cmax (Table 6, PO Dose: 5 mg/kg, mean, read-out: Cmax, Mean): 151 ng/mL
MRT inf (Table 6, PO Dose: 5 mg/kg, mean, read-out: MRTInf—obs, Mean): 13.4 h
half-life (Table 6, PO Dose: 5 mg/kg, mean, read-out: T1/2, Mean (converted)): 9.9 h
Tmax (CD1, plasma, Table 6, PO Dose: 5 mg/kg, Mouse 4): 2 h
AUClast/D [5]: 462 h·ng/mL per mg/kg
AUC—% Extrap—obs [5]: 17.0%
Cl_obs [5]: 29.9 mL/min/kg
AUClast/D [6]: 389 h·ng/mL per mg/kg
AUC—% Extrap—obs [6]: 19.8%
Cl_obs [6]: 34.3 mL/min/kg
AUClast/D [7]: 394 h·ng/mL per mg/kg
AUC—% Extrap—obs [7]: 11.6%
Cl_obs [7]: 37.4 mL/min/kg
AUClast/D, Mean [8]: 415 h·ng/mL per mg/kg
AUC—% Extrap—obs, Mean [8]: 16.1%
C0, Mean [8]: 101 ng/mL
Cl_obs, Mean [8]: 33.9 mL/min/kg
AUClast/D [9]: 324 h·ng/mL per mg/kg
AUC—% Extrap—obs [9]: 23.4%
F [9]: 78.0%
AUClast/D [10]: 358 h·ng/mL per mg/kg
AUC—% Extrap—obs [10]: 13.4%
F [10]: 83.3%
AUClast/D [11]: 393 h·ng/mL per mg/kg
AUC—% Extrap—obs [11]: 17.4%
F [11]: 95.9%
AUClast/D, Mean [12]: 358 h·ng/mL per mg/kg
AUC—% Extrap—obs, Mean [12]: 18.1%
F, Mean [12]: 85.7%
SMILES: CNCc1ccc(C[C@H](NC(C)=O)c2nnc(-c3cccc(OC(F)(F)F)c3)s2)cc1 [Compound 42140, N-(2-(4-((methylamino)methyl)phenyl)-1-(5-(3-(trifluoromethoxy)phenyl)-1,3,4-thiadiazol-2-yl)ethyl)acetamide]
